Measurements from US12077503B2, “Substituted cyclic amides and their use as herbicides” (FMC CORPORATION, priority 2015, dated 2024).

Tests used:
Format in all cases: in vivo
[1] = test system: ducksalad (Heteranthera limosa); test: Test B flooded paddy test; conditions: Heteranthera limosa, 250 g ai/ha, Flood; 0 to 100 scale where 0 is no effect and 100 is complete control; read-out: Ducksalad plant response rating
Outline: (§1)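 Plants at 2-leaf stage flooded to 3 cm above soil, with compounds applied directly to paddy water and that depth maintained. Plants kept in greenhouse 13–15 d. Visual rating versus controls on a 0 (no effect) to 100 (complete control) scale.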

[2] = test system: sedge, umbrella (small-flower umbrella sedge, Cyperus difformis); test: Test B flooded paddy test; conditions: Cyperus difformis, 250 g ai/ha, Flood; 0 to 100 scale where 0 is no effect and 100 is complete control; read-out: Sedge, Umbrella plant response rating
Outline: as §1

[3] = test system: barnyardgrass (Echinochloa crus-galli); test: Test B flooded paddy test; conditions: Echinochloa crus-galli, 250 g ai/ha, Flood; 0 to 100 scale where 0 is no effect and 100 is complete control; read-out: Barnyardgrass plant response rating
Outline: as §1

[4] = test system: rice (Oryra sativa); test: Test B flooded paddy test; conditions: Oryza sativa, 250 g ai/ha, Flood; 0 to 100 scale where 0 is no effect and 100 is complete control; read-out: Rice plant response rating
Outline: as §1

[5] = test system: giant foxtail (Setaria faberii); test: Test A postemergence; conditions: Setaria faberi, post-emergence, 240 h, Postemergence, read-out: Plant response rating, Foxtail, Giant
Outline: (§2)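 Seeded soil received test chemicals as a preemergence directed spray, and seedlings at one to two leaves, 2–10 cm tall, received them postemergence, in a non-phytotoxic, surfactant-containing solvent mixture. Pots were held in a greenhouse for approximately 10 d, then rated for injury from 0, no effect, to 100, complete control.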

[6] = test system: Kochia (Kochia scoparia); test: Test A postemergence; conditions: Bassia scoparia, post-emergence, 240 h, Postemergence, read-out: Plant response rating, Kochia
Outline: as §2

[7] = test system: Galium (catchweed bedstraw, Galium aparine); test: Test A postemergence; conditions: Galium, post-emergence, 240 h, Postemergence, read-out: Plant response rating, Galium
Outline: as §2

[8] = test system: corn (Zea mays); test: Test A postemergence; conditions: Zea mays, post-emergence, 240 h, Postemergence
Outline: as §2

[9] = test system: wheat (Triticum aestivum); test: Test A postemergence; conditions: Triticum aestivum, post-emergence, 240 h, Postemergence, read-out: Plant response rating, Wheat
Outline: as §2

[10] = test system: blackgrass (Alopecurus myosuroides); test: Test A postemergence; conditions: Alopecurus myosuroides, post-emergence, 240 h, Postemergence, read-out: Plant response rating, Blackgrass
Outline: as §2

[11] = test system: barnyardgrass (Echinochloa crus-galli); test: Test A postemergence; conditions: Echinochloa crus-galli, post-emergence, 240 h, Postemergence, read-out: Plant response rating, Barnyardgrass
Outline: as §2

[12] = test system: pigweed (Amaranthus retroflexus); test: Test A postemergence; conditions: Amaranthus retroflexus, post-emergence, 240 h, Postemergence, read-out: Plant response rating, Pigweed
Outline: as §2

[13] = test system: ragweed (common ragweed, Ambrosia elatior); test: Test A postemergence; conditions: Ambrosia artemisiifolia, post-emergence, 240 h, Postemergence, read-out: Plant response rating, Ragweed
Outline: as §2

[14] = test system: ryegrass, Italian (Italian ryegrass, Lolium multiflorum); test: Test A postemergence; conditions: Lolium multiflorum, post-emergence, 240 h, Postemergence, read-out: Plant response rating, Ryegrass, Italian
Outline: as §2

[15] = test system: giant foxtail (Setaria faberii); test: Test A preemergence; conditions: Setaria faberi, pre-emergence, 240 h, Preemergence
Outline: as §2

[16] = test system: Kochia (Kochia scoparia); test: Test A preemergence; conditions: Bassia scoparia, pre-emergence, 240 h, Preemergence
Outline: as §2

[17] = test system: barnyardgrass (Echinochloa crus-galli); test: Test A preemergence; conditions: Echinochloa crus-galli, pre-emergence, 240 h, Preemergence
Outline: as §2

[18] = test system: pigweed (Amaranthus retroflexus); test: Test A preemergence; conditions: Amaranthus retroflexus, pre-emergence, 240 h, Preemergence
[19] = test system: ragweed (common ragweed, Ambrosia elatior); test: Test A preemergence; conditions: Ambrosia artemisiifolia, pre-emergence, 240 h, Preemergence
Outline: as §2

[20] = test system: ryegrass, Italian (Italian ryegrass, Lolium multiflorum); test: Test A preemergence; conditions: Lolium multiflorum, pre-emergence, 240 h, Preemergence
Outline: as §2

[21] = 125 g ai/ha, visual injury after approximately 10 d, 0 to 100 scale where 0 is no effect and 100 is complete control
[22] = 31 g ai/ha, visual injury after approx. 10 d, 0 to 100 scale, 0 no effect, 100 complete control

O=C(Nc1ccc(F)c(F)c1F)[C@H]1C(=O)N(C2CC2)CC[C@@H]1c1ccc(F)cc1 [Compound 1004]
pest or weed control at 250 g/ha [1]: 60%
pest or weed control at 250 g/ha [2]: 0%
pest or weed control at 250 g/ha [3]: 0%
pest or weed control at 250 g/ha [4]: 0%
pest or weed control at 125 g/ha [5, 21]: 0%
pest or weed control at 31 g/ha [5, 22]: 0%
pest or weed control at 125 g/ha [6, 21]: 0%
pest or weed control at 31 g/ha [6, 22]: 0%
pest or weed control at 125 g/ha [7, 21]: 0%
pest or weed control at 31 g/ha [7, 22]: 0%
Corn plant response rating (crop injury, 0 = no effect, 100 = complete kill) at 125 g/ha [8, 21]: 0%
Corn plant response rating (crop injury, 0 = no effect, 100 = complete kill) at 31 g/ha [8, 22]: 0%
plant injury at 125 g/ha [9, 21]: 0%
plant injury at 31 g/ha [9, 22]: 0%
pest or weed control at 125 g/ha [10, 21]: 0%
pest or weed control at 31 g/ha [10, 22]: 0%
pest or weed control at 125 g/ha [11, 21]: 0%
pest or weed control at 31 g/ha [11, 22]: 0%
pest or weed control at 125 g/ha [12, 21]: 0%
pest or weed control at 31 g/ha [12, 22]: 0%
pest or weed control at 125 g/ha [13, 21]: 0%
pest or weed control at 31 g/ha [13, 22]: 0%
pest or weed control at 125 g/ha [14, 21]: 0%
pest or weed control at 31 g/ha [14, 22]: 0%
pest or weed control at 125 g/ha ([15]; 125 g ai/ha, visual injury rating after approximately 10 d, read-out: Foxtail, Giant plant response rating (0 to 100 scale, 0 is no effect, 100 is complete control)): 30%
pest or weed control at 31 g/ha ([15]; 31 g ai/ha, 0 to 100 scale (0 no effect, 100 complete control), read-out: Plant response rating, Foxtail, Giant): 0%
pest or weed control at 31 g/ha ([16]; 31 g ai/ha, 0 to 100 scale where 0 is no effect and 100 is complete control, read-out: Kochia plant response rating): 0%
pest or weed control at 125 g/ha ([16]; 125 g ai/ha, visual injury rating after approximately 10 d, read-out: Kochia plant response rating (0 to 100 scale, 0 is no effect, 100 is complete control)): 0%
pest or weed control at 125 g/ha ([17]; 125 g ai/ha, visual injury rating after approximately 10 d, read-out: Barnyardgrass plant response rating (0 to 100 scale, 0 is no effect, 100 is complete control)): 0%
pest or weed control at 31 g/ha ([17]; 31 g ai/ha, 0 to 100 scale (0 no effect, 100 complete control), read-out: Plant response rating, Barnyardgrass): 0%
pest or weed control at 31 g/ha ([18]; 31 g ai/ha, 0 to 100 scale where 0 is no effect and 100 is complete control, read-out: Pigweed plant response rating): 0%
pest or weed control at 125 g/ha ([18]; 125 g ai/ha, visual injury rating after approximately 10 d, read-out: Pigweed plant response rating (0 to 100 scale, 0 is no effect, 100 is complete control)): 0%
pest or weed control at 31 g/ha ([19]; 31 g ai/ha, 0 to 100 scale where 0 is no effect and 100 is complete control, read-out: Ragweed plant response rating): 0%
pest or weed control at 125 g/ha ([19]; 125 g ai/ha, visual injury rating after approximately 10 d, read-out: Ragweed plant response rating (0 to 100 scale, 0 is no effect, 100 is complete control)): 0%
pest or weed control at 31 g/ha ([20]; 31 g ai/ha, 0 to 100 scale where 0 is no effect and 100 is complete control, read-out: Ryegrass, Italian plant response rating): 0%
pest or weed control at 125 g/ha ([20]; 125 g ai/ha, visual injury rating after approximately 10 d, read-out: Ryegrass, Italian plant response rating (0 to 100 scale, 0 is no effect, 100 is complete control)): 0%
